Measured values reported in patent publication US20240209456A1, “METHODS AND COMPOSITIONS RELATED TO CELL-CYCLE RNA's” (BETH ISRAEL DEACONESS MEDICAL CENTER, priority 2021, published 2024).

Target: TIP60 (Homo sapiens, UniProt Q92993)
Assay: nascent ChIP-qPCR (nasChIP) with TIP60 antibody
Format: cell-based
Design: endogenous in cells; host or cells: HL-60
Details: for restoration of TIP60 at c-MYC locus after DRB reversal: HL-60, 2 hrs after DRB wash-out, MG149 200 μM, TH1834 500 μM; for restoration of TIP60 enrichment at PU1 locus after DRB reversal: HL-60, MG149 and TH1834 treatments
Experimental: To confirm the results of the ChIP-Seq, and to track the deposition of the H2A.Z, acH2A.Z nascent chromatin immunoprecipitation (nasChIP-PCR) was performed with the antibodies to H2A.Z, acH2A.Z and TIP60, as nasChIP-PCR can be used to track histone deposition. Cells were synchronized with a double thymidine block, released into S Phase and treated with DRB for 2 hrs. The medium was supplemented with the EdU DNA analog to enable collection of nascent chromatin DNA (FIG. 4A). […] The results of these experiments provide an important link between the suppressed c-MYC SPEARs expression and the reduced levels of the replacement histone H2A.Z, as an even greater degree of the loss of the acetylated acH2A.Z forms at the TSS of the c-MYC locus. Similar results were obtained for another gene locus, PU1 (FIG. 4F, right panels).
Cells were synchronized with a double thymidine block and released into S Phase with DMSO/DRB added. After 2 hours (during which H2A.Z levels remained unaffected, but SPEARs and mRNA levels drop, see FIG. 10A), cells were washed and then incubated for a further 2 hours with or without the TIP60 inhibitors. This interval is sufficient for the levels of both the c-MYC mRNAs and its SPEARs to be restored when the TIP60 inhibitors are absent (results shown in FIG. 11B). The medium was supplemented with the EU RNA and EdU DNA analogs to enable collection of nascent RNAs and newly formed chromatin that had escaped the drug-induced inhibition of transcription or acetylation. After 2 hours with the TIP60 inhibitors present (MG-149 at 200 μM and TH1834 at 500 μM), during which the levels of acH2A.Z dropped (see FIG. 11A), cells were crosslinked and subjected to nasChIP and nascent RNA expression analyses (nas-qRT-PCR) (FIG. 6B). Collected RNAs were biotinylated by click chemistry, isolated on streptavidin beads and analyzed by nas-qRT-PCR (see “Methods” below for details; FIG. 8A; bottom panel).
To further confirm that SPEARs realize their c-MYC regulatory function directly through the TIP60/acH2A.Z pathway, the differences in chromatin occupancy of H2A.Z, acH2A.Z and TIP60 were assessed after inhibition of transcription (“DRB”), reversal of inhibition (“DRB REV”) and reversal of inhibition in the presence of the two TIP60 inhibitors, using nasChIP-qPCR. […] By analyzing the nascent RNAs and chromatin, only the immediate changes in c-MYC expression and TIP60, acH2A.Z and H2A.Z occupancy were examined within the locus as imposed by the inhibition of transcription and/or acetylation. […] When the two HAT inhibitors are present, the reversal of transcriptional inhibition can only restore the enrichment levels of the unmodified H2A.Z and TIP60 (FIG. 6D; left and right panels), but not the levels of acH2A.Z (middle panel). […] Furthermore, no enrichments of H2A.Z, acH2A.Z or TIP60 was detected within the Gene Desert locus (FIG. 11C). […] Similar results were obtained for the PU.1 locus (FIG. 11D and FIG. 11E). These findings using nasChIP are in line with the general trend obtained globally by ChIP-Seq. (FIG. 4C).
Nascent RNA/DNA capture was performed using Click-iT Nascent RNA Capture Kit (ThermoFisher) according to the manufacturer's instructions with minor modifications. Briefly, 1. Labeling the cells with EU/EdU. 200 mM EU or 30 mM EdU stock solutions were added to the cells, to a final concentration 0.5 mM or 30 μM, respectively. 2. Incubation. The cells were incubated for 1 or 2 hours. 3. RNA/DNA isolation. The cells were harvested and the RNA/DNA were isolated and dissolved in 14 μL of H2O. 4. Biotinylation of RNA/DNA by Click reaction. Click-iT reaction cocktail (50 μL per reaction) was prepared accordingly to manufacturer's instructions: a mixture containing 1× Click-iT EU buffer; 2 mM CuSO4; 1 mM Biotin azide; 13.25 μL of the isolated RNA; 10 mM Click-iT reaction buffer additive 1; 12 mM Click-iT reaction buffer additive 2 was prepared. After adding each component, the reaction cocktail was gently mixed by vortexing. […]

Chain of TIP60 (Q92993 whole entry): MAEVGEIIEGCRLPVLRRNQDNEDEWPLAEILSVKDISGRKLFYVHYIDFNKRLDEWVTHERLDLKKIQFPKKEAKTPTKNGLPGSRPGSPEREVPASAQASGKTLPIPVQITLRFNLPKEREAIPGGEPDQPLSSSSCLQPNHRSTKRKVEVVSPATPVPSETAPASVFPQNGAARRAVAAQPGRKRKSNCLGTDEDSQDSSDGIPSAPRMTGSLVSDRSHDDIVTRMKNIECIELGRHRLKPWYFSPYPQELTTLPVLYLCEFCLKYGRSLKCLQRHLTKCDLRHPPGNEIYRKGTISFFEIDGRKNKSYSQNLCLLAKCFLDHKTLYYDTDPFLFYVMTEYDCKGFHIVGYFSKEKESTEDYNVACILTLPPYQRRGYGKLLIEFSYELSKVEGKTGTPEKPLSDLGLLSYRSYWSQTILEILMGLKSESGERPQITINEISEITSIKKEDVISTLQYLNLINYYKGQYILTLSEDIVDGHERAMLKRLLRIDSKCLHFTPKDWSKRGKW

SMILES	TIP60 enrichment at PU1 locus (HL-60, DRB treatment)	TIP60 enrichment at c-MYC locus (HL-60 released into S Phase, DRB 2 hrs)	restoration of TIP60 at c-MYC locus after DRB reversal	restoration of TIP60 enrichment at PU1 locus after DRB reversal
OC[C@H]1O[C@@H](n2cnc3cc(Cl)c(Cl)cc32)[C@H](O)[C@@H]1O [DRB, 5,6-Dichlorobenzimidazole 1-β-D-ribofuranoside]	loss	diminished enrichment and loss		
CCCCCCCc1ccc(CCc2cccc(O)c2C(=O)O)cc1 [MG149]			only slightly affecting	without affecting
O=C(O)Cn1nnc(-c2ccc(CN(CCCCOc3ccc(CN4CCCC4)cc3)CCc3ccccc3)cc2)n1 [TH1834]			only slightly affecting	without affecting
